Experimental data: PubChem BioAssay AID1963865 (Molecular Pharmacology Branch, DTP, NCI, 2024)

Tested on: KRAS PDC multicell spheroid viability
Test: Anticancer human tumor 825966-067-R-J1-PDC patient-derived colon carcinoma cell line growth inhibition [KRAS2]
Conditions: for IC50: curve of first compound; for viability, T/C: stronger effect = lower value
In short: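 Combination screen of spheroid viability in tumor-cell co-cultures with endothelial (HUVEC) and mesenchymal stem cell stroma. Each agent was tested in half-log dilutions, topping at clinical Cmax or at 10 microM without a known Cmax.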

[1] = second compound 0.1 µM, first compound 0.0316 µM
[2] = second compound 0.1 µM, first compound 0.1 µM
[3] = second compound 0.316 µM, first compound 0.0316 µM
[4] = second compound 0.316 µM, first compound 0.1 µM
[5] = second compound 1 µM, first compound 0.0316 µM
[6] = second compound 1 µM, first compound 0.1 µM
[7] = second compound 3.16 µM, first compound 0.0316 µM
[8] = second compound 3.16 µM, first compound 0.1 µM
[9] = second compound 10 µM, first compound 0.0316 µM
[10] = second compound 10 µM, first compound 0.1 µM
[11] = second compound 0.1 µM, first compound 0.316 µM
[12] = second compound 0.1 µM, first compound 1 µM
[13] = second compound 0.1 µM, first compound 3.16 µM
[14] = second compound 0.1 µM, first compound 10 µM
[15] = second compound 0.316 µM, first compound 0.316 µM
[16] = second compound 0.316 µM, first compound 1 µM
[17] = second compound 0.316 µM, first compound 3.16 µM
[18] = second compound 0.316 µM, first compound 10 µM
[19] = second compound 1 µM, first compound 0.316 µM
[20] = second compound 1 µM, first compound 1 µM
[21] = second compound 1 µM, first compound 3.16 µM
[22] = second compound 1 µM, first compound 10 µM
[23] = second compound 3.16 µM, first compound 0.316 µM
[24] = second compound 3.16 µM, first compound 1 µM
[25] = second compound 3.16 µM, first compound 3.16 µM
[26] = second compound 3.16 µM, first compound 10 µM
[27] = second compound 10 µM, first compound 0.316 µM
[28] = second compound 10 µM, first compound 1 µM
[29] = second compound 10 µM, first compound 3.16 µM
[30] = second compound 10 µM, first compound 10 µM
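Also: spheroids exposed to compounds for 7 days.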
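For viability, T/C in this document: 100% = DMSO vehicle control viability.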

| Compound | IC50 (second compound 0.1 µM) | IC50 (second compound 0.316 µM) | IC50 (second compound 1 µM) | IC50 (second compound 3.16 µM) | IC50 (second compound 10 µM) | viability, T/C [1] | viability, T/C [2] | viability, T/C [3] | viability, T/C [4] | viability, T/C [5] | viability, T/C [6] | viability, T/C [7] | viability, T/C [8] | viability, T/C [9] | viability, T/C [10] | viability, T/C [11] | viability, T/C [12] | viability, T/C [13] | viability, T/C [14] | viability, T/C [15] | further results |
| --- | --- | --- | --- | --- | --- | --- | --- | --- | --- | --- | --- | --- | --- | --- | --- | --- | --- | --- | --- | --- | --- |
| CN(C)C/C=C/C(=O)Nc1cc2c(Nc3ccc(F)c(Cl)c3)ncnc2cc1O[C@H]1CCOC1 + CNCc1ccccc1-c1csc(C(C)Nc2nc(C)nc3cc(OC)c(OC)cc23)c1 | > 100 nM | > 100 nM | > 100 nM | > 100 nM | < 0.316 nM | 88.8% | 106% | 99.3% | 92.4% | 108% | 106% | 130% | 104% | 1.87% | 2.49% |  |  |  |  |  | viability, T/C (second compound 0.1 µM, first compound 0.000316 µM): 103%; viability, T/C (second compound 0.1 µM, first compound 0.001 µM): 92.3%; viability, T/C (second compound 0.1 µM, first compound 0.00316 µM): 98%; viability, T/C (second compound 0.1 µM, first compound 0.01 µM): 113%; viability, T/C (second compound 0.316 µM, first compound 0.000316 µM): 123%; viability, T/C (second compound 0.316 µM, first compound 0.001 µM): 108%; viability, T/C (second compound 0.316 µM, first compound 0.00316 µM): 107%; viability, T/C (second compound 0.316 µM, first compound 0.01 µM): 105%; viability, T/C (second compound 1 µM, first compound 0.000316 µM): 110%; viability, T/C (second compound 1 µM, first compound 0.001 µM): 101%; viability, T/C (second compound 1 µM, first compound 0.00316 µM): 89.5%; viability, T/C (second compound 1 µM, first compound 0.01 µM): 107%; viability, T/C (second compound 3.16 µM, first compound 0.000316 µM): 128%; viability, T/C (second compound 3.16 µM, first compound 0.001 µM): 113%; viability, T/C (second compound 3.16 µM, first compound 0.00316 µM): 107%; viability, T/C (second compound 3.16 µM, first compound 0.01 µM): 1.05%; viability, T/C (second compound 10 µM, first compound 0.000316 µM): 1.54%; viability, T/C (second compound 10 µM, first compound 0.001 µM): 0.37%; viability, T/C (second compound 10 µM, first compound 0.00316 µM): 0.43%; viability, T/C (second compound 10 µM, first compound 0.01 µM): 1.89% |
| COC(=O)c1ccc2c(C(=Nc3ccc(N(C)C(=O)CN4CCN(C)CC4)cc3)c3ccccc3)c(O)[nH]c2c1 + CNCc1ccccc1-c1csc(C(C)Nc2nc(C)nc3cc(OC)c(OC)cc23)c1 | 567 nM | 1180 nM | 910 nM | < 31.6 nM | < 31.6 nM | 84.2% | 82.4% | 62% | 86.3% | 75.7% | 78.2% | 23% | 38.6% | 2.62% | 0.25% | 77.7% | 23.2% | 0.18% | 0.19% | 97.5% | viability, T/C [16]: 58.4%; viability, T/C [17]: 0.13%; viability, T/C [18]: 0.2%; viability, T/C [19]: 87%; viability, T/C [20]: 47.3%; viability, T/C [21]: 0.9%; viability, T/C [22]: 0.21%; viability, T/C [23]: 0.57%; viability, T/C [24]: 0.22%; viability, T/C [25]: 0.13%; viability, T/C [26]: 0.21%; viability, T/C [27]: 1.09%; viability, T/C [28]: 0.18%; viability, T/C [29]: 0.17%; viability, T/C [30]: 0.26% |
| O=C(c1cc(Cc2n[nH]c(=O)c3ccccc23)ccc1F)N1CCN(C(=O)C2CC2)CC1 + CNCc1ccccc1-c1csc(C(C)Nc2nc(C)nc3cc(OC)c(OC)cc23)c1 | > 10000 nM | > 10000 nM | > 10000 nM | < 31.6 nM | < 31.6 nM | 102% | 90.9% | 90.8% | 87.2% | 112% | 90.3% | 9.5% | 28.8% | 0.23% | 0.27% | 81.1% | 88.5% | 78.6% | 61.2% | 92.6% | viability, T/C [16]: 87.7%; viability, T/C [17]: 77.9%; viability, T/C [18]: 97.6%; viability, T/C [19]: 87.8%; viability, T/C [20]: 91.1%; viability, T/C [21]: 104%; viability, T/C [22]: 111%; viability, T/C [23]: 40.8%; viability, T/C [24]: 15.5%; viability, T/C [25]: 1.24%; viability, T/C [26]: 2.36%; viability, T/C [27]: 0.26%; viability, T/C [28]: 0.23%; viability, T/C [29]: 0.19%; viability, T/C [30]: 0.27% |
